According to US20160289188A1, “COMPOSITIONS AND METHODS FOR THE TREATMENT OF VIRAL DISEASES WITH PDE4 MODULATORS” (priority 2013, published 2016):
Read-outs that look alike come from different tables or passages of the source.

How the values were obtained:
Junin virus = tested on: Junin virus; parameters: species or system guinea pigs; conditions: guinea pig, in vivo
rJunin (rRomero) virus = tested on: rJunin (rRomero) virus; parameters: species or system guinea pigs; conditions: guinea pig, in vivo
Lassa (Josiah) virus = tested on: Lassa (Josiah) virus; parameters: species or system guinea pigs; conditions: guinea pig, in vivo
[1] = Pharmacokinetics and tolerability in guinea pigs (Example 1); conditions: 50 mg/kg PO, blood by vena cava bleed

Compound | temperature findings (febrile, hypothermic) (Junin virus) | temperature findings (febrile, hypothermic) (rJunin (rRomero) virus) | animals surviving to the end of study (Lassa (Josiah) virus) | temperature findings (febrile, hypothermic) (Lassa (Josiah) virus) | average weight loss (Junin virus) | survival rate (Junin virus) | (highest) average weight loss (rJunin (rRomero) virus) | survival rate (rJunin (rRomero) virus) | (highest) average weight loss (Lassa (Josiah) virus) | adequacy of the dose according to the pharmacokinetic results [1] | further results
NC(=O)c1ncn([C@@H]2O[C@H](CO)[C@@H](O)[C@H]2O)n1 [Ribavirin, reference compound] | Only 1 animal was febrile on day +27 | Only one animal was intermittently febrile between days +16 and +27 | only one animal survived | Only one of the two animals that died was febrile once on day +17 |  |  |  |  |  |  | animals surviving to the end of study (Junin virus): all 3 animals survived; weight loss up to (Junin virus): up to 5.2%; animals surviving to the end of study (rJunin (rRomero) virus): all 3 animals survived; weight loss of the intermittently febrile animal (rJunin (rRomero) virus): 17.67%; weight loss up to (rJunin (rRomero) virus): up to 3.09%; average group weight loss up to (Lassa (Josiah) virus): up to 15.39%
COc1ccc(C(CC(N)=O)N2Cc3ccccc3C2=O)cc1OC (stereo not drawn) [Compound A, 3-(3,4-dimethoxy-phenyl)-3-(1-oxo-1,3-dihydro-isoindol-2-yl)-propionamide] | All animals that died were febrile between day +7 and +10 and two were hypothermic on day +14 | All animals that died were febrile between day +7 and +15 and four out of six were hypothermic before death | None of the animals survived | All animals were febrile between day +7 and +19 and two were hypothermic before death | 0.69% | 50% | 1.33% | 33% | 12.17% | within range | (highest) average weight loss (rJunin (rRomero) virus; po, 50 mg/kg): 5.89%; survival rate (rJunin (rRomero) virus; po, 50 mg/kg): 22%; temperature findings (febrile, hypothermic) (rJunin (rRomero) virus; po, 50 mg/kg): All animals that died were febrile between day +5 and +13 and three out of seven were hypothermic before death; (highest) average weight loss (Lassa (Josiah) virus; po, 50 mg/kg): 5.36%; survival rate (Lassa (Josiah) virus; po, 50 mg/kg): 44%; temperature findings (febrile, hypothermic) (Lassa (Josiah) virus; po, 50 mg/kg): All animals, including the survivors, were febrile between day +7 and +17 and none of the animals were hypothermic before death
CCOc1cc(C(CS(C)(=O)=O)N2Cc3cccc(NC(=O)C4CC4)c3C2=O)ccc1OC (stereo not drawn) [Compound B, N-(2-(1-(3-ethoxy-4-methoxyphenyl)-2-(methylsulfonyl)ethyl)-3-oxoisoindolin-4-yl)cyclopropanecarboxamide] | Most of the animals in this group were febrile starting at day +7 but none were recorded as hypothermic | All of the animals in this group except the survivor were febrile starting day +7 thru +11 and four were recorded as hypothermic before death |  | All of the animals in this group except the survivor were febrile starting day +8 thru +16 and only one was recorded as hypothermic before death | 4.4% | 17% | 12.41% | 11% | 13.08% | needed to be increased | survival rate (Lassa (Josiah) virus): 13%
